Reference: US6355799B1, “Substituted benzene compounds, process for their preparation, and herbicidal and defoliant compositions containing them” (ISK Americas Incorporated, priority 1997, dated 2002)

Columns and labels:
Type in all cases: in vivo
[1] = test system: upland rice (Oryza sp., var. Tebonnet, RICE); assay: Post-emerge test, crop safety; conditions: post-emerge, 14 days after application, rating scale 0-100
Summary of the method: (§1)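 Each test used a mechanized track sprayer delivering 187 l/ha of acetone solution at 15–1000 g ai/ha. Post-emerge foliage at 2–3 leaves was treated with added 0.25% v/v non-ionic surfactant and bottom-watered only. Injury was assessed on day 14, where 100 means total kill.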

[2] = test system: field corn (Zea mays L., var. Dekalb 535, CORN); assay: Post-emerge test, crop safety; conditions: post-emerge, 14 days after application, rating scale 0-100
Summary of the method: as §1

[3] = test system: barnyardgrass (Echinochloa crus-galli, ECHCG); assay: Post-emerge test, greenhouse herbicide activity screening; conditions: post-emerge, 14 days after application, rating scale 0-100
Summary of the method: (§2)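 Plants grown in 10 cm pots of sandy loam mix received acetone-dissolved compounds through a moving flat-fan nozzle. Doses ranged from 15 to 1000 g ai/ha. Pre-emerge pots were seeded one day earlier, post-emerge pots 8–21 days earlier. Fourteen days on, each pot was graded 0–100 for damage.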

[4] = test system: sicklepod (Cassia obtusifolia, CASOB); assay: as above; conditions: post-emerge, 14 days after application, rating scale 0-100
Summary of the method: as §2

[5] = test system: velvetleaf (Abutilon theophrasti, ABUTH); assay: as above; conditions: post-emerge, 14 days after application, rating scale 0-100
Summary of the method: as §2

[6] = test system: johnsongrass (Sorghum halepense, SORHA); assay: as above; conditions: post-emerge, 14 days after application, rating scale 0-100
Summary of the method: as §2

[7] = test system: lambsquarters (Chenopodium album, CHEAL); assay: as above; conditions: post-emerge, 14 days after application, rating scale 0-100
Summary of the method: as §2

[8] = test system: ivyleaf morningglory (Ipomoea hederacea, IPOHE); assay: as above; conditions: post-emerge, 14 days after application, rating scale 0-100
Summary of the method: as §2

[9] = test system: redroot pigweed (Amaranthus retroflexus, AMARE); assay: as above; conditions: post-emerge, 14 days after application, rating scale 0-100
Summary of the method: as §2

[10] = test system: green foxtail (Setaria viridis, SETVI); assay: as above; conditions: post-emerge, 14 days after application, rating scale 0-100
Summary of the method: as §2

[11] = test system: large crabgrass (Digitaria sanguinalis, DIGSA); assay: as above; conditions: post-emerge, 14 days after application, rating scale 0-100
Summary of the method: as §2

[12] = test system: upland rice (Oryza sp., var. Tebonnet, RICE); assay: Pre-emerge test, crop safety; conditions: rated 14 days after application, 0 = no damage, 100 = complete death
Summary of the method: (§3)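 Fourteen days after spraying, crop and weed injury was graded visually from 0, no effect, to 100, every plant dead. Test substances were dissolved in acetone and applied at 15–1000 g ai/ha with a flat-fan nozzle. Application was either pre-emergence, one day after sowing, or post-emergence at the 2–3 leaf stage.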

[13] = test system: field corn (Zea mays L., var. Dekalb 535, CORN); assay: Pre-emerge test, crop safety; conditions: rated 14 days after application, 0 = no damage, 100 = complete death
Summary of the method: as §3

[14] = test system: barnyardgrass (Echinochloa crus-galli, ECHCG); assay: Pre-emerge test, greenhouse herbicide activity screening; conditions: rated 14 days after application, 0 = no damage, 100 = complete death
Summary of the method: as §2

[15] = test system: sicklepod (Cassia obtusifolia, CASOB); assay: as above; conditions: rated 14 days after application, 0 = no damage, 100 = complete death
Summary of the method: as §2

[16] = test system: velvetleaf (Abutilon theophrasti, ABUTH); assay: as above; conditions: rated 14 days after application, 0 = no damage, 100 = complete death
Summary of the method: as §2

[17] = test system: johnsongrass (Sorghum halepense, SORHA); assay: as above; conditions: rated 14 days after application, 0 = no damage, 100 = complete death
Summary of the method: as §2

[18] = test system: lambsquarters (Chenopodium album, CHEAL); assay: as above; conditions: rated 14 days after application, 0 = no damage, 100 = complete death
Summary of the method: as §2

[19] = test system: ivyleaf morningglory (Ipomoea hederacea, IPOHE); assay: as above; conditions: rated 14 days after application, 0 = no damage, 100 = complete death
Summary of the method: as §2

[20] = test system: green foxtail (Setaria viridis, SETVI); assay: as above; conditions: rated 14 days after application, 0 = no damage, 100 = complete death
Summary of the method: as §2

[21] = test system: large crabgrass (Digitaria sanguinalis, DIGSA); assay: as above; conditions: rated 14 days after application, 0 = no damage, 100 = complete death
Summary of the method: as §2

[22] = test system: redroot pigweed (Amaranthus retroflexus, AMARE); assay: as above; conditions: rated 14 days after application, 0 = no damage, 100 = complete death
Summary of the method: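 Compounds in acetone were track-sprayed at 187 l/ha, 15–1000 g ai/ha, onto sandy loam pots. Pre-emerge seeds were sown one day before spraying, with surface watering afterwards. Post-emerge plants were at the 2–3 leaf stage and sprayed with 0.25% v/v non-ionic surfactant. Injury was rated 0–100 at 14 days.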

For Cn1c(C(F)(F)F)cc(=O)n(-c2c(F)cc(Cl)c(OCC#N)c2NC(=O)CCc2ccccc2)c1=O [2-87], the “phytotoxicity rating RICE” value ([1]; 63 g ai/ha) was 40, the “phytotoxicity rating RICE” value ([1]; 250 g ai/ha) was 75 and the “phytotoxicity rating CORN” value ([2]; 63 g ai/ha) was 30. The “phytotoxicity rating CORN” value ([2]; 250 g ai/ha) was 80, the “phytotoxicity rating ECHCG” value ([3]; 63 g ai/ha) was 10 and the “phytotoxicity rating ECHCG” value ([3]; 250 g ai/ha) was 50. For the same compound, the “phytotoxicity rating CASOB” value ([4]; 63 g ai/ha) was 40, the “phytotoxicity rating CASOB” value ([4]; 250 g ai/ha) was 100 and the “phytotoxicity rating ABUTH” value ([5]; 63 g ai/ha) was 100. For the same compound, the “phytotoxicity rating ABUTH” value ([5]; 250 g ai/ha) was 100, the “phytotoxicity rating SORHA” value ([6]; 63 g ai/ha) was 10 and the “phytotoxicity rating SORHA” value ([6]; 250 g ai/ha) was 50. The “phytotoxicity rating CHEAL” value ([7]; 63 g ai/ha) was 80, the “phytotoxicity rating CHEAL” value ([7]; 250 g ai/ha) was 90 and the “phytotoxicity rating IPOHE” value ([8]; 63 g ai/ha) was 100. For the same compound, the “phytotoxicity rating IPOHE” value ([8]; 250 g ai/ha) was 100, the “phytotoxicity rating AMARE” value ([9]; 63 g ai/ha) was 100 and the “phytotoxicity rating AMARE” value ([9]; 250 g ai/ha) was 100. For the same compound, the “phytotoxicity rating SETVI” value ([10]; 63 g ai/ha) was 30, the “phytotoxicity rating SETVI” value ([10]; 250 g ai/ha) was 40 and the “phytotoxicity rating DIGSA” value ([11]; 63 g ai/ha) was 10. The “phytotoxicity rating DIGSA” value ([11]; 250 g ai/ha) was 50, the “Pre-emerge phytotoxicity rating (0-100), crop damage, RICE” value ([12]; 63 g ai/ha) was 40 and the “Pre-emerge phytotoxicity rating (0-100), crop damage, RICE” value ([12]; 250 g ai/ha) was 90. The “Pre-emerge phytotoxicity rating (0-100), crop damage, CORN” value ([13]; 63 g ai/ha) was 5, the “Pre-emerge phytotoxicity rating (0-100), crop damage, CORN” value ([13]; 250 g ai/ha) was 75 and the “Pre-emerge Herbicidal Activity, phytotoxicity rating (0-100), ECHCG” value ([14]; 63 g ai/ha) was 60. For the same compound, the “Pre-emerge Herbicidal Activity, phytotoxicity rating (0-100), ECHCG” value ([14]; 250 g ai/ha) was 90, the “Pre-emerge Herbicidal Activity, phytotoxicity rating (0-100), CASOB” value ([15]; 63 g ai/ha) was 100 and the “Pre-emerge Herbicidal Activity, phytotoxicity rating (0-100), CASOB” value ([15]; 250 g ai/ha) was 100. The “Pre-emerge Herbicidal Activity, phytotoxicity rating (0-100), ABUTH” value ([16]; 63 g ai/ha) was 100, the “Pre-emerge Herbicidal Activity, phytotoxicity rating (0-100), ABUTH” value ([16]; 250 g ai/ha) was 100 and the “Pre-emerge Herbicidal Activity, phytotoxicity rating (0-100), SORHA” value ([17]; 63 g ai/ha) was 50. The “Pre-emerge Herbicidal Activity, phytotoxicity rating (0-100), SORHA” value ([17]; 250 g ai/ha) was 85, the “Pre-emerge Herbicidal Activity, phytotoxicity rating (0-100), CHEAL” value ([18]; 63 g ai/ha) was 100 and the “Pre-emerge Herbicidal Activity, phytotoxicity rating (0-100), CHEAL” value ([18]; 250 g ai/ha) was 100. For the same compound, the “Pre-emerge Herbicidal Activity, phytotoxicity rating (0-100), IPOHE” value ([19]; 63 g ai/ha) was 90, the “Pre-emerge Herbicidal Activity, phytotoxicity rating (0-100), IPOHE” value ([19]; 250 g ai/ha) was 100 and the “Pre-emerge Herbicidal Activity, phytotoxicity rating (0-100), SETVI” value ([20]; 63 g ai/ha) was 90. The “Pre-emerge Herbicidal Activity, phytotoxicity rating (0-100), SETVI” value ([20]; 250 g ai/ha) was 100, the “Pre-emerge Herbicidal Activity, phytotoxicity rating (0-100), DIGSA” value ([21]; 63 g ai/ha) was 80 and the “Pre-emerge Herbicidal Activity, phytotoxicity rating (0-100), DIGSA” value ([21]; 250 g ai/ha) was 100. The “Pre-emerge Herbicidal Activity, phytotoxicity rating (0-100), AMARE” value ([22]; 63 g ai/ha) was 100 and the “Pre-emerge Herbicidal Activity, phytotoxicity rating (0-100), AMARE” value ([22]; 250 g ai/ha) was 100.
